In PubChem BioAssay (NCI):
“And” between values parts separate entries of the source, which are not always exact repeats. Equal entries are not always repeated.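 Briefly, cells in 96-well plates were exposed to five compound concentrations for 48 h, and endpoints were estimated by linear interpolation. The concentration for 50% growth inhibition is given as GI50. TGI is the concentration that stops growth completely.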

Assays:
Test in all cases: NCI tumour cell line growth inhibition, 48 h
SK-OV-3 ovarian = test system: SK-OV-3 ovarian
HT29 colon = test system: HT29 colon
MOLT-4 leukemia = test system: MOLT-4 leukemia
A549 NSCLC = test system: A549 NSCLC
TK-10 renal = test system: TK-10 renal
SK-MEL-28 melanoma = test system: SK-MEL-28 melanoma
CCRF-CEM leukemia = test system: CCRF-CEM leukemia
HCC-2998 colon = test system: HCC-2998 colon
NCI-H226 lung = test system: NCI-H226 lung
MDA-MB-231 breast = test system: MDA-MB-231 breast

CCOc1ccc2nc(S/C(=C/C=C(C#N)C#N)c3ccc(C)cc3)sc2c1
GI50 (SK-OV-3 ovarian): > 100 µM
TGI (SK-OV-3 ovarian): > 100 µM
GI50 (HT29 colon): 4.71 µM
TGI (HT29 colon): > 100 µM
GI50 (MOLT-4 leukemia): 3.03 µM
TGI (MOLT-4 leukemia): 8.5 µM
GI50 (A549 NSCLC): 46.7 µM
TGI (A549 NSCLC): > 100 µM
GI50 (TK-10 renal): 27.2 µM
TGI (TK-10 renal): 94.6 µM
GI50 (SK-MEL-28 melanoma): 31.1 µM
TGI (SK-MEL-28 melanoma): > 100 µM
GI50 (CCRF-CEM leukemia): 2.05 µM
TGI (CCRF-CEM leukemia): 5.52 µM
GI50 (HCC-2998 colon): 25.1 µM
TGI (HCC-2998 colon): 53.6 µM
GI50 (NCI-H226 lung): 20.3 µM
TGI (NCI-H226 lung): 42.4 µM
GI50 (MDA-MB-231 breast): 17.8 µM
TGI (MDA-MB-231 breast): 43.4 µM

Cc1[nH]c2ccccc2c1-c1cc(-c2cc(-c3c(C)[nH]c4ccccc34)on2)no1
TGI (SK-OV-3 ovarian): > 100 µM
TGI (HT29 colon): > 100 µM
TGI (MOLT-4 leukemia): > 100 µM
TGI (A549 NSCLC): > 100 µM
TGI (TK-10 renal): > 100 µM
TGI (SK-MEL-28 melanoma): > 100 µM
TGI (CCRF-CEM leukemia): > 100 µM
TGI (HCC-2998 colon): > 100 µM
TGI (NCI-H226 lung): > 100 µM
TGI (MDA-MB-231 breast): > 100 µM

CCCNC(=S)/N=C/c1c(O)c2ccccc2[nH]c1=O
TGI (SK-OV-3 ovarian): > 100 µM
TGI (HT29 colon): > 100 µM
TGI (MOLT-4 leukemia): > 100 µM
TGI (A549 NSCLC): > 100 µM
TGI (TK-10 renal): > 100 µM
TGI (CCRF-CEM leukemia): > 100 µM
TGI (HCC-2998 colon): > 100 µM
TGI (NCI-H226 lung): > 100 µM
TGI (MDA-MB-231 breast): > 100 µM

N=c1ccn2c(n1)OC1C(O)C(CO)OC12 (centres undefined)
GI50 (SK-OV-3 ovarian): 5.43 µM
TGI (SK-OV-3 ovarian): > 696 µM
GI50 (HT29 colon): 6.23 µM
TGI (HT29 colon): > 1000 µM
GI50 (MOLT-4 leukemia): 0.016 µM
GI50 (A549 NSCLC): 0.337 µM
TGI (A549 NSCLC): > 1000 µM
TGI (TK-10 renal): > 1000 µM
GI50 (SK-MEL-28 melanoma): 6.3 µM and > 36.5 µM
TGI (SK-MEL-28 melanoma): > 607 µM
GI50 (CCRF-CEM leukemia): 0.102 µM and 0.0335 µM
TGI (CCRF-CEM leukemia): 92.2 µM
GI50 (HCC-2998 colon): 0.0303 µM
GI50 (NCI-H226 lung): 120 µM and > 79 µM
TGI (NCI-H226 lung): > 719 µM
GI50 (MDA-MB-231 breast): > 100 µM
TGI (MDA-MB-231 breast): > 1000 µM

COc1ccc(-c2oc(=O)ccc2-c2cc(OC)c(OC)c(OC)c2)cc1F
GI50 (SK-OV-3 ovarian): 80 µM
TGI (SK-OV-3 ovarian): > 100 µM
GI50 (HT29 colon): 4.93 µM
TGI (HT29 colon): > 100 µM
GI50 (MOLT-4 leukemia): 22.4 µM
TGI (MOLT-4 leukemia): > 100 µM
GI50 (A549 NSCLC): 9.91 µM
TGI (A549 NSCLC): > 100 µM
GI50 (TK-10 renal): 39.4 µM
TGI (TK-10 renal): > 100 µM
GI50 (SK-MEL-28 melanoma): 24.7 µM
TGI (SK-MEL-28 melanoma): > 100 µM
GI50 (CCRF-CEM leukemia): 26.6 µM
TGI (CCRF-CEM leukemia): > 100 µM
GI50 (HCC-2998 colon): 33.4 µM
TGI (HCC-2998 colon): > 100 µM
GI50 (NCI-H226 lung): 66.4 µM
TGI (NCI-H226 lung): > 100 µM
GI50 (MDA-MB-231 breast): 16 µM
TGI (MDA-MB-231 breast): > 100 µM

CC(=O)OC12c3ccccc3-c3ccccc3C1C1C(=O)N(C)C(=O)C12Cl (centres undefined)
TGI (SK-OV-3 ovarian): > 10 µM
TGI (HT29 colon): > 10 µM
TGI (MOLT-4 leukemia): > 10 µM
TGI (TK-10 renal): > 10 µM
TGI (SK-MEL-28 melanoma): > 10 µM
TGI (CCRF-CEM leukemia): > 10 µM
TGI (HCC-2998 colon): > 10 µM
TGI (NCI-H226 lung): > 10 µM
TGI (MDA-MB-231 breast): > 10 µM

O=C(c1ccc(F)c(F)c1Nc1ccc(I)cc1F)N1CC(O)([C@@H]2CCCCN2)C1
GI50 (SK-OV-3 ovarian): 5.46 µM and 3.26 µM
TGI (SK-OV-3 ovarian): 20.6 µM and > 10 µM
GI50 (HT29 colon): < 0.01 µM and 0.00367 µM
TGI (HT29 colon): 11 µM and > 10 µM
GI50 (MOLT-4 leukemia): 4.62 µM and 5.26 µM
TGI (MOLT-4 leukemia): 18.8 µM and > 10 µM
GI50 (A549 NSCLC): 0.25 µM and 0.48 µM
TGI (A549 NSCLC): 17 µM and > 10 µM
GI50 (TK-10 renal): 0.271 µM
TGI (TK-10 renal): 14.8 µM and > 10 µM
GI50 (SK-MEL-28 melanoma): < 0.01 µM
TGI (SK-MEL-28 melanoma): 0.594 µM
GI50 (CCRF-CEM leukemia): 10.2 µM and > 10 µM
TGI (CCRF-CEM leukemia): 26.7 µM and > 10 µM
GI50 (HCC-2998 colon): < 0.015 µM and 0.0194 µM
TGI (HCC-2998 colon): 0.86 µM and 0.952 µM
GI50 (NCI-H226 lung): 1.91 µM and 1.24 µM
TGI (NCI-H226 lung): 23.3 µM and > 10 µM
GI50 (MDA-MB-231 breast): < 0.0254 µM and 0.0955 µM
TGI (MDA-MB-231 breast): 4.18 µM and > 9.06 µM

O=c1cc(-c2ccccc2)[nH]c2c(S)cccc12
TGI (SK-OV-3 ovarian): > 100 µM
TGI (HT29 colon): > 100 µM
TGI (MOLT-4 leukemia): > 100 µM
TGI (A549 NSCLC): > 100 µM
TGI (TK-10 renal): > 100 µM
TGI (SK-MEL-28 melanoma): > 100 µM
TGI (CCRF-CEM leukemia): > 100 µM
TGI (HCC-2998 colon): > 100 µM
TGI (NCI-H226 lung): 99.7 µM
TGI (MDA-MB-231 breast): > 100 µM

CCCCCCNC(=O)c1nc(-c2ccccc2)oc1Cc1ccc(OP(=O)(O)O)cc1
GI50 (SK-OV-3 ovarian): 20 µM
TGI (SK-OV-3 ovarian): 47.6 µM
GI50 (HT29 colon): 19.5 µM
TGI (HT29 colon): 37.8 µM
GI50 (MOLT-4 leukemia): 20.9 µM
TGI (MOLT-4 leukemia): 54.8 µM
GI50 (A549 NSCLC): 18 µM
TGI (A549 NSCLC): 36 µM
GI50 (TK-10 renal): 16.9 µM
TGI (TK-10 renal): 32.9 µM
GI50 (SK-MEL-28 melanoma): 15.9 µM
TGI (SK-MEL-28 melanoma): 30.1 µM
GI50 (CCRF-CEM leukemia): 24 µM
TGI (CCRF-CEM leukemia): 67 µM
GI50 (HCC-2998 colon): 18.2 µM
TGI (HCC-2998 colon): 33.4 µM
GI50 (NCI-H226 lung): 17 µM
TGI (NCI-H226 lung): 33.5 µM
GI50 (MDA-MB-231 breast): 17.2 µM
TGI (MDA-MB-231 breast): 36.6 µM

CC1=CC(=O)[C@@H](O)[C@]2(C)[C@H]3[C@@]4(O)OC[C@]35[C@H]([C@@H](C)[C@H]4O)[C@@H](O)C(=O)O[C@@H]5C[C@@H]12
TGI (SK-OV-3 ovarian): > 20.5 µM
TGI (A549 NSCLC): 15.5 µM
TGI (TK-10 renal): 7.76 µM
TGI (SK-MEL-28 melanoma): 0.691 µM
TGI (CCRF-CEM leukemia): 1.45 µM
TGI (HCC-2998 colon): 2.51 µM
TGI (NCI-H226 lung): 0.694 µM
TGI (MDA-MB-231 breast): 1.44 µM

CCN(CC)CCOc1ccc(/C=C2\CC3C4CC=C5C[C@@H](O)CC[C@]5(C)C4CC[C@]3(C)C2=O)cc1OC (some centres undefined)
GI50 (SK-OV-3 ovarian): 8.64 µM
TGI (SK-OV-3 ovarian): > 58.3 µM
GI50 (HT29 colon): 2.29 µM
TGI (HT29 colon): > 100 µM
GI50 (MOLT-4 leukemia): 2.04 µM
TGI (MOLT-4 leukemia): > 23.5 µM
GI50 (A549 NSCLC): 11.6 µM
TGI (A549 NSCLC): 26.1 µM
GI50 (TK-10 renal): 9.94 µM
TGI (TK-10 renal): 21.5 µM
GI50 (SK-MEL-28 melanoma): 9.61 µM
TGI (SK-MEL-28 melanoma): 73.4 µM
TGI (CCRF-CEM leukemia): > 22 µM
GI50 (HCC-2998 colon): 8.43 µM
TGI (HCC-2998 colon): 21.6 µM
GI50 (NCI-H226 lung): 2.77 µM
TGI (NCI-H226 lung): 8.77 µM
GI50 (MDA-MB-231 breast): 2.31 µM
TGI (MDA-MB-231 breast): 7.38 µM

CCN(CC)c1nc(-c2ccc(Cl)cc2Cl)nc2ccccc12
GI50 (SK-OV-3 ovarian): 26.5 µM
TGI (SK-OV-3 ovarian): > 79.9 µM
GI50 (HT29 colon): 37.6 µM
TGI (HT29 colon): > 100 µM
GI50 (MOLT-4 leukemia): 42.9 µM
TGI (MOLT-4 leukemia): > 100 µM
GI50 (A549 NSCLC): 17.1 µM
TGI (A549 NSCLC): 57.2 µM
GI50 (TK-10 renal): 23.8 µM
TGI (TK-10 renal): 63.3 µM
GI50 (SK-MEL-28 melanoma): 31.8 µM
TGI (SK-MEL-28 melanoma): > 100 µM
GI50 (CCRF-CEM leukemia): 10.4 µM
TGI (CCRF-CEM leukemia): > 100 µM
GI50 (HCC-2998 colon): 16.7 µM
TGI (HCC-2998 colon): 31.7 µM
GI50 (NCI-H226 lung): 12.4 µM
TGI (NCI-H226 lung): 31.2 µM
GI50 (MDA-MB-231 breast): 4.2 µM
TGI (MDA-MB-231 breast): 23.2 µM

Nc1nc(N)c(N=Nc2ccc([As](=O)(O)O)cc2)c(=O)[nH]1
TGI (SK-OV-3 ovarian): > 100 µM
TGI (HT29 colon): > 100 µM
TGI (MOLT-4 leukemia): > 100 µM
TGI (A549 NSCLC): > 100 µM
TGI (TK-10 renal): > 100 µM
TGI (SK-MEL-28 melanoma): > 100 µM
TGI (CCRF-CEM leukemia): > 100 µM
TGI (HCC-2998 colon): > 100 µM
TGI (NCI-H226 lung): > 100 µM
TGI (MDA-MB-231 breast): > 100 µM

Cc1csc(Nc2nc(-c3cccc(Br)c3)nc(C(Cl)(Cl)Cl)n2)n1
GI50 (SK-OV-3 ovarian): > 100 µM
TGI (SK-OV-3 ovarian): > 100 µM
GI50 (HT29 colon): 0.56 µM
TGI (HT29 colon): > 100 µM
GI50 (MOLT-4 leukemia): > 40.9 µM
TGI (MOLT-4 leukemia): > 100 µM
GI50 (A549 NSCLC): 1.61 µM
TGI (A549 NSCLC): 7.28 µM
GI50 (TK-10 renal): 2.25 µM
TGI (TK-10 renal): > 100 µM
GI50 (SK-MEL-28 melanoma): 3.48 µM
TGI (SK-MEL-28 melanoma): > 100 µM
GI50 (CCRF-CEM leukemia): > 100 µM
TGI (CCRF-CEM leukemia): > 100 µM
GI50 (HCC-2998 colon): 1.63 µM
TGI (HCC-2998 colon): 3.57 µM
GI50 (NCI-H226 lung): > 100 µM
TGI (NCI-H226 lung): > 100 µM
GI50 (MDA-MB-231 breast): 2.78 µM
TGI (MDA-MB-231 breast): > 100 µM

CC(=C\c1ccccc1)/C=C(\C#N)C(N)=O
TGI (SK-OV-3 ovarian): > 10 µM
TGI (HT29 colon): > 10 µM
TGI (TK-10 renal): > 10 µM
TGI (SK-MEL-28 melanoma): > 10 µM
TGI (HCC-2998 colon): > 10 µM
TGI (NCI-H226 lung): > 10 µM
TGI (MDA-MB-231 breast): > 10 µM
